In US7417156B2, “Orally active, antimalarial, anticancer, artemisinin-derived trioxane dimers” (Johns Hopkins University, priority 2002, dated 2008):

Columns and labels:
[1] = tested on: P. berghei NY malaria parasite; assay: Antimalarial efficacies in vivo in mice
Excerpt: Neither overt toxicity nor behavioral modification was observed due to drug administration in any of these mouse experiments.

NCI-H226 = assay: NCI 60 cell line panel screen (SRB); type: cell-based, human; settings: for Log10LC50 / Log10TGI50: NCI-H226 (Non-Small Cell Lung Cancer); for Log10LC50: LC50: PG=−50; for Log10TGI50: TGI: PG=0; for Log10GI50: Non-Small Cell Lung Cancer, NCI-H226
KM12 = assay: NCI 60 cell line panel screen (SRB); type: cell-based, human; settings: for Log10GI50: Colon Cancer, KM12; for Log10LC50 / Log10TGI50: KM12 (Colon Cancer); for Log10LC50: LC50: PG=−50; for Log10TGI50: TGI: PG=0
RXF 393 = assay: NCI 60 cell line panel screen (SRB); type: cell-based, human; settings: for Log10LC50 / Log10TGI50: RXF 393 (Renal Cancer); for Log10LC50: LC50: PG=−50; for Log10TGI50: TGI: PG=0; for Log10GI50: Renal Cancer, RXF 393
UO-31 = assay: NCI 60 cell line panel screen (SRB); type: cell-based, human; settings: for Log10GI50: Renal Cancer, UO-31; for Log10LC50 / Log10TGI50: UO-31 (Renal Cancer); for Log10LC50: LC50: PG=−50; for Log10TGI50: TGI: PG=0
malaria parasite = assay: Efficacy Study Blood Schizontocidal Activity; type: in vivo; parameters: ED90: unit not given here
male CD-1 mice = assay: Acute toxicity study, single intraperitoneal injection; settings: for Mortality: single ip, male CD-1 mice
Experimental: Each compound was dissolved in DMSO (Mallinkrodt Lot No. V18H15) to achieve a concentration of 200 mg/ml, and then 3 parts sesame oil (Spectrum Lot No. M10656) was added to make a working concentration of 50 mg/ml for dose administration. Stability, strength, and uniformity of the test articles in the dose formulations were not determined for this study.
Forty-two CD1 male mice purchased from Charles River Laboratories (Wilmington, Mass.) were used in the study. Mice were quarantined for 3 days prior to initiation of the study.
Mice were weighed and randomized into treatment groups on the day prior to the first dose administration. Due to limitations in the amount of available test materials, fewer mice in 1000 mg/kg groups were treated than specified in the protocol. The numbers of animals intended to be used and actually used with each compound at each dose level are shown in the table below; the only differences are in the high-dose groups.
Surviving animals were sacrificed on Day 8 and blood was collected for clinical pathology evaluations.
Mortality and morbidity were checked twice daily on weekdays and once daily on the weekend, see Table VI. Animals were weighed daily and prior to necropsy.

HCC-2998 = assay: NCI 60 cell line panel screen (SRB); type: cell-based, human; settings: HCC-2998 (Colon Cancer)
SW-620 = assay: NCI 60 cell line panel screen (SRB); type: cell-based, human
SF-295 = assay: NCI 60 cell line panel screen (SRB); type: cell-based, human
LOX IMVI = assay: NCI 60 cell line panel screen (SRB); type: cell-based, human
SK-MEL-5 = assay: NCI 60 cell line panel screen (SRB); type: cell-based, human
UACC-62 = assay: NCI 60 cell line panel screen (SRB); type: cell-based, human
OVCAR-4 = assay: NCI 60 cell line panel screen (SRB); type: cell-based, human
A498 = assay: NCI 60 cell line panel screen (SRB); type: cell-based, human
SN12C = assay: NCI 60 cell line panel screen (SRB); type: cell-based, human
DU-145 = assay: NCI 60 cell line panel screen (SRB); type: cell-based, human
MDA-N = assay: NCI 60 cell line panel screen (SRB); type: cell-based, human; settings: Breast Cancer, MDA-N

CC1CCC2C(C)C(CC(O)(CC3OC4OC5(C)CCC6C(C)CCC(C3C)C46OO5)CS(=O)(=O)c3ccc(C(=O)O)cc3)OC3OC4(C)CCC1C32OO4 (stereo not drawn) [Compound 10c, bis-trioxane β-hydroxysulfone benzoic acid]
ED50 ([1]; route IV): 2.7 mg/kg × 4
ED90 ([1]; route IV): 10.0 mg/kg × 4
% Parasite Supression at 10 mg/kg ([1]; route IV): 83.4%
ED50 ([1]; route PO): 7.5 mg/kg × 4
ED90 ([1]; route PO): 35.0 mg/kg × 4
% Parasite Supression at 10 mg/kg ([1]; route PO): 46.1%
Log10LC50 (NCI-H226): −4.82 log10M
Log10TGI50 (NCI-H226): <−8.30 log10M
Log10GI50 (NCI-H226): <−8.30
Log10GI50 (KM12): <−8.30
Log10LC50 (KM12): −5.23 log10M
Log10TGI50 (KM12): <−8.30 log10M
Log10LC50 (RXF 393): −4.73 log10M
Log10TGI50 (RXF 393): −5.99 log10M
Log10GI50 (RXF 393): <−8.30
Log10GI50 (UO-31): −5.91
Log10LC50 (UO-31): >−4.30 log10M
Log10TGI50 (UO-31): >−4.30 log10M

CC1CCC2C(C)C(CC(COC(=O)c3cc[n+]([O-])cc3)CC3OC4OC5(C)CCC6C(C)CCC(C3C)C46OO5)OC3OC4(C)CCC1C32OO4 (stereo not drawn) [Compound 13, bis-trioxane primary alcohol isonicotinate N-oxide]
ED50 (malaria parasite; Route: IV): 0.55 mg/kg
ED90 (malaria parasite; Route: IV): 2.0
ED50 (malaria parasite; Route: PO): 4 mg/kg
ED90 (malaria parasite; Route: PO): 9.0
efficacy relative to sodium artesunate in words (malaria parasite; orally and i.v.): more efficacious
Mortality (male CD-1 mice; 125 mg/kg): No death
Mortality (male CD-1 mice; 250 mg/kg): No death
Mortality (male CD-1 mice; 500 mg/kg): 3/3 dead
Mortality (male CD-1 mice; 750 mg/kg): 2/3 dead
toxicity relative to sodium artesunate in words (male CD-1 mice; intraperitoneally to mice as a single dose): less toxic
Log10LC50 (HCC-2998; LC50: PG=−50): −4.55 log10M
Log10TGI50 (HCC-2998; TGI: PG=0): −4.91 log10M
Log10GI50 (KM12): <−8.30
Log10LC50 (KM12): −4.37 log10M
Log10TGI50 (KM12): −5.04 log10M
Log10GI50 (SW-620; Colon Cancer, SW-620): <−8.30
Log10LC50 (SW-620; SW-620 (Colon Cancer), LC50: PG=−50): −4.53 log10M
Log10TGI50 (SW-620; SW-620 (Colon Cancer), TGI: PG=0): −5.05 log10M
Log10GI50 (SF-295; CNS Cancer, SF-295): −5.21
Log10LC50 (SF-295; SF-295 (CNS Cancer), LC50: PG=−50): −4.33 log10M
Log10TGI50 (SF-295; SF-295 (CNS Cancer), TGI: PG=0): −4.77 log10M
Log10LC50 (LOX IMVI; LOX IMVI (Melanoma), LC50: PG=−50): −5.78 log10M
Log10TGI50 (LOX IMVI; LOX IMVI (Melanoma), TGI: PG=0): <−8.30 log10M
Log10GI50 (LOX IMVI; Melanoma, LOX IMVI): <−8.30
Log10GI50 (SK-MEL-5; Melanoma, SK-MEL-5): <−8.30
Log10LC50 (SK-MEL-5; SK-MEL-5 (Melanoma), LC50: PG=−50): −4.73 log10M
Log10TGI50 (SK-MEL-5; SK-MEL-5 (Melanoma), TGI: PG=0): −5.28 log10M
Log10GI50 (UACC-62; Melanoma, UACC-62): −8.00
Log10LC50 (UACC-62; UACC-62 (Melanoma), LC50: PG=−50): −4.66 log10M
Log10TGI50 (UACC-62; UACC-62 (Melanoma), TGI: PG=0): −5.07 log10M
Log10LC50 (OVCAR-4; OVCAR-4 (Ovarian Cancer), LC50: PG=−50): −4.42 log10M
Log10TGI50 (OVCAR-4; OVCAR-4 (Ovarian Cancer), TGI: PG=0): −4.93 log10M
Log10GI50 (OVCAR-4; Ovarian Cancer, OVCAR-4): <−8.30
Log10LC50 (A498; A498 (Renal Cancer), LC50: PG=−50): −4.74 log10M
Log10TGI50 (A498; A498 (Renal Cancer), TGI: PG=0): −5.31 log10M
Log10GI50 (A498; Renal Cancer, A498): −6.97
Log10LC50 (RXF 393): >−4.30 log10M
Log10TGI50 (RXF 393): −4.69 log10M
Log10GI50 (RXF 393): −5.20
Log10GI50 (SN12C; Renal Cancer, SN12C): <−8.30
Log10LC50 (SN12C; SN12C (Renal Cancer), LC50: PG=−50): −4.72 log10M
Log10TGI50 (SN12C; SN12C (Renal Cancer), TGI: PG=0): −5.29 log10M
Log10GI50 (UO-31): <−8.30
Log10LC50 (UO-31): >−4.30 log10M
Log10TGI50 (UO-31): −5.10 log10M
Log10TGI50 (DU-145; DU-145 (Prostate Cancer), TGI: PG=0): −5.00 log10M
Log10GI50 (DU-145; Prostate Cancer, DU-145): −7.48

CC1CCC2C(C)C(CC(COC(=O)CCC(=O)O)CC3OC4OC5(C)CCC6C(C)CCC(C3C)C46OO5)OC3OC4(C)CCC1C32OO4 (stereo not drawn) [Compound 8a, bis-trioxane primary succinate monoester]
ED50 ([1]; route IV): 2.2 mg/kg × 4
ED90 ([1]; route IV): 6.3 mg/kg × 4
% Parasite Supression at 10 mg/kg ([1]; route IV): 81.0%
ED50 ([1]; route PO): 9.0 mg/kg × 4
ED90 ([1]; route PO): 15.0 mg/kg × 4
% Parasite Supression at 10 mg/kg ([1]; route PO): 79.2%
Log10LC50 (NCI-H226): >−4.30 log10M
Log10TGI50 (NCI-H226): −6.67 log10M
Log10GI50 (NCI-H226): <−8.30
Log10GI50 (KM12): <−8.30
Log10LC50 (KM12): −4.60 log10M
Log10TGI50 (KM12): <−8.30 log10M
Log10LC50 (RXF 393): >−4.30 log10M
Log10TGI50 (RXF 393): −6.77 log10M
Log10GI50 (RXF 393): <−8.30
Log10GI50 (UO-31): −5.46
Log10LC50 (UO-31): >−4.30 log10M
Log10TGI50 (UO-31): >−4.30 log10M
Log10GI50 (MDA-N): −7.29
